Laboratory results taken from patent US8623859B2, “Bradykinin B1 antagonists” (Evotec AG, priority 2008, dated 2014).
pIC50: −log10 of the molar value. Counter-ions that a name gives are not always drawn.

Biological target: T1, human B1 (Homo sapiens, UniProt P46663)
T1 construct: host or cells: CHO-K1
T1 sequence (P46663 1-353): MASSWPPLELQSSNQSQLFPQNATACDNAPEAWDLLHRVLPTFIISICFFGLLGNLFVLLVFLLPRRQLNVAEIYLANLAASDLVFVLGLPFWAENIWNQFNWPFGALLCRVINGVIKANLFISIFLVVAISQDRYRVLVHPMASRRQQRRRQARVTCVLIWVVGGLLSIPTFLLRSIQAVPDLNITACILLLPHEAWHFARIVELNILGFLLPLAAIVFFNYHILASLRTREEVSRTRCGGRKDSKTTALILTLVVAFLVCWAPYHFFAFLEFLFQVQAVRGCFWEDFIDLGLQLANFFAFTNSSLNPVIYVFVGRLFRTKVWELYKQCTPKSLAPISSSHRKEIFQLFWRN
Experiment: Calcium flux assay for Bradykinin B1 antagonist, CHO-K1 cell line expressing human B1
Type: cell-based
Details: CHO-K1 cells expressing human B1, agonist Lys-(Des-Arg)-Bradykinin, read-out: Potency (IC50 value against human B1)
Description: Calcium Flux Assay for Bradykinin B1 Antagonist
The potency to inhibit the Bradykinin B1 receptors was determined for the compounds of this invention in a cell-based fluorescent calcium-mobilization assay. The assay measures the ability of test compounds to inhibit Bradykinin B1 receptor agonist-induced increase of intracellular free Ca^2+ in cell lines expressing B1.
The change of the intracellular Ca^2+ concentration is monitored with a specifically designed fluorescent plate reader (FlexStation, Molecular Devices).
CHO-K1 cell line expressing human B1 was purchased from Euroscreen (Gosselies, Belgium, with reference name hBl-D1). CHO-K1 cell lines expressing rat B1 or mouse B1 were established in the following way: the full-length receptor-coding cDNA clones were obtained by PCR performed on rat or mouse brain cDNAs. The respective cDNAs were cloned into an expression vector under the control of a CMV promotor. The resultant plasmids were introduced into CHO-K1 cells with liposome technology (FuGENE; Roche Diagnostics, Basel), according to the standard protocols described by the manufacturer. Cell lines expressing a Bradykinin receptor were selected in the culture medium containing 400 μg/ml G418 (Sigma). From selected cell populations, monoclonal cell lines were isolated by single cell cloning. The expression of Bradykinin receptors was confirmed by immunofluorescence staining of the cells, as well as by calcium flux assay.
Human B1-expressing cells were grown in Nutrient Mixture Ham's F12 (Sigma) containing 10% Foetal bovine serum (Sigma) and 400 μg/ml G418 (Sigma), 5 μg/ml puromycim (Sigma); Rat B1 and mouse B1-expressing cells were grown in DMEM/F12 medium (Sigma) containing 10% Foetal bovine serum (Sigma) and 400 μg/ml G418 (Sigma).
For the calcium flux assay, 80% confluent cells were detached from the culture vessels with Versene (Gibco; for human B1 cell-line) or with 1× trypsin-EDTA solution (Sigma; for rodent B1 cell-line), and seeded into 384-well plates (Cell binding Surface; Corning, N.Y.; #3683) at a density of 15,000 cells per well for human B1 or at a density of 20,000 cells per well for rodent B1. Cells were seeded in a volume of 50 μl in medium without antibiotics and incubated overnight in a humidified atmosphere with 5% CO2 at 37° C. The following day, the medium was replaced with 20 μl of 5 μM Fluo-4AM dye (Molecular Probes) in assay buffer (2.5 mM probenicid, 1 mg/ml pluronic acid, 0.1% BSA, 135 mM NaCl, 5 mM KCl, 1.8 mM CaCl, 1 mM MgCl2, 10 mM HEPES, 5.6 mM glucose, 0.05% gelatine, pH 7.4). The calcium indicator loaded cells were incubated at 37° C. for 2 hrs. Extracellular dye was then removed and each well was filled with 45 μl of assay buffer. Cell plates were kept in dark until used. Test compounds were assayed at 8 concentrations in triplicate. Serial 10-fold dilutions in 100% DMSO were made at a 100-times higher concentration than the final concentration, and then diluted 1:10 in assay buffer. 5 μl of each diluted compound was added to the well of cell plates (yielding final concentration with 1% DMSO), and incubated for 30 min at 25° C. before the addition of B1 agonist on the FlexStation.
The addition of agonist 20 μl per well to the assay plate was carried out on the FlexStation while continuously monitoring Ca^2+-dependent fluorescence at 538 nm. The integrated values, normalized with the background fluorescence, were plotted against the logarithm of the antagonist concentrations.

| Structure (SMILES) | pIC50 |
| --- | --- |
| COc1cc(C)c(S(=O)(=O)N(C)Cc2nc(C(=O)NCCc3ccc(C4=NCCN4)cc3)co2)c(C)c1 [Ex 67, N-{2-[4-(4,5-dihydro-1H-imidazol-2-yl)phenyl]ethyl}-2-({[(4-methoxy-2,6-dimethylphenyl)sulfonyl](methyl)amino}methyl)-1,3-oxazole-4-carboxamide] | > 8.00 |
| COc1cc(C)c(S(=O)(=O)N(C)Cc2cc(C(=O)N(C)Cc3ccc(CN4CC(O)C4)cc3)co2)c(C)c1 [Ex 128, N-{4-[(3-Hydroxyazetidin-1-yl)methyl]benzyl}-5-({[(4-methoxy-2,6-dimethylphenyl)sulfonyl](methyl)amino}methyl)-N-methylfuran-3-carboxamide] | 6.00 to 7.00 |
| COc1cc(C)c(S(=O)(=O)N(Cc2nc(C(=O)N3CC4CCN(C5CN6CCC5CC6)CC4C3)co2)C2CC2)c(C)c1 (centres unmarked) [Ex 207, N-[(4-{[5-(1-Azabicyclo[2.2.2]oct-3-yl)octahydro-2H-pyrrolo[3,4-c]pyridin-2-yl]carbonyl}-1,3-oxazol-2-yl)methyl]-N-cyclopropyl-4-methoxy-2,6-dimethylbenzenesulfonamide trifluoroacetate] | > 8.00 |
| COc1cc(C)c(S(=O)(=O)N(Cc2cc(C(=O)NCc3ccc(CN4CCCC4)cc3)co2)C2CC2)c(C)c1 [Ex 56, 5-({Cyclopropyl[(4-methoxy-2,6-dimethylphenyl)sulfonyl]amino}methyl)-N-[4-(pyrrolidin-1-ylmethyl)benzyl]furan-3-carboxamide] | 7.00 to 8.00 |
| COc1cc(C)c(S(=O)(=O)N(C)Cc2nnc(C(=O)N3CCC(CCN4CCCC4)CC3)o2)c(C)c1 [Ex 280, 4-Methoxy-N,2,6-trimethyl-N-[(5-{[4-(2-pyrrolidin-1-ylethyl)piperidin-1-yl]carbonyl}-1,3,4-oxadiazol-2-yl)methyl]benzenesulfonamide] | 7.00 to 8.00 |
| COc1cc(C)c(S(=O)(=O)N(C)Cc2cc(C(=O)NCc3ccc(C4=NCCN4)cc3)co2)c(C)c1 [Ex 6, N-[4-(4,5-dihydro-1H-imidazol-2-yl)benzyl]-5-({[(4-methoxy-2,6-dimethylphenyl)sulfonyl](methyl)amino}methyl)furan-3-carboxamide] | 7.00 to 8.00 |
| COc1cc(C)c(S(=O)(=O)N(C)Cc2cc(C(=O)N(C)Cc3ccc(-c4nccn4C)cc3)co2)c(C)c1 [Ex 43, 5-({[(4-methoxy-2,6-dimethylphenyl)sulfonyl](methyl)amino}methyl)-N-methyl-N-[4-(1-methyl-1H-imidazol-2-yl)benzyl]furan-3-carboxamide] | 6.00 to 7.00 |
| CCN(Cc1cc(C(=O)NCCc2ccc(C3=NCCN3)cc2)co1)S(=O)(=O)c1c(Cl)cccc1Cl [Ex 122, 5-({[(2,6-Dichlorophenyl)sulfonyl](ethyl)amino}methyl)-N-{2-[4-(4,5-dihydro-1H-imidazol-2-yl)phenyl]ethyl}furan-3-carboxamide trifluoroacetate] | 6.00 to 7.00 |
| COc1cc(C)c(S(=O)(=O)N(Cc2nc(C(=O)N3CC4CCN(Cc5ccc(N6CCCC6)nc5)CC4C3)co2)C2CC2)c(C)c1 (centres unmarked) [Ex 211, N-Cyclopropyl-4-methoxy-2,6-dimethyl-N-{[4-({5-[(6-pyrrolidin-1-ylpyridin-3-yl)methyl]octahydro-2H-pyrrolo[3,4-c]pyridin-2-yl}carbonyl)-1,3-oxazol-2-yl]methyl}benzenesulfonamide trifluoroacetate] | > 8.00 |
| CCc1cc(Br)ccc1S(=O)(=O)N(C)Cc1cc(C(=O)NCc2cccc(CN3CCCC3)c2)co1 [Ex 16, 5-({[(4-bromo-2-ethylphenyl)sulfonyl](methyl)amino}methyl)-N-[3-(pyrrolidin-1-ylmethyl)benzyl]furan-3-carboxamide] | 6.00 to 7.00 |
| COc1cc(C)c(S(=O)(=O)N(C)Cc2nnc(C(=O)N3CCN(Cc4cccnc4N)CC3)o2)c(C)c1 [Ex 295, N-{[5-({4-[(2-Aminopyridin-3-yl)methyl]piperazin-1-yl}carbonyl)-1,3,4-oxadiazol-2-yl]methyl}-4-methoxy-N,2,6-trimethylbenzenesulfonamide] | > 8.00 |
| COc1cc(C)c(S(=O)(=O)N(C)Cc2nnc(C(=O)N(C)Cc3ccc4c(c3)CN(C)C4)o2)c(C)c1 [Ex 288, 5-({[(4-Methoxy-2,6-dimethylphenyl)sulfonyl](methyl)amino}methyl)-N-methyl-N-[(2-methyl-2,3-dihydro-1H-isoindol-5-yl)methyl]-1,3,4-oxadiazole-2-carboxamide] | 6.00 to 7.00 |
| COc1cc(C)c(S(=O)(=O)N(C)Cc2cc(C(=O)N(C)Cc3ccc(CN4CCCC(OC)C4)cc3)co2)c(C)c1 (centres unmarked) [Ex 130, 5-({[(4-Methoxy-2,6-dimethylphenyl)sulfonyl](methyl)amino}methyl)-N-{4-[(3-methoxypiperidin-1-yl)methyl]benzyl}-N-methylfuran-3-carboxamide] | 6.00 to 7.00 |
| COc1cc(C)c(S(=O)(=O)N(C)Cc2nnc(C(=O)N3CCN(CC4CCN(C5CCC5)CC4)CC3)o2)c(C)c1 [Ex 265, N-{[5-({4-[(1-Cyclobutylpiperidin-4-yl)methyl]piperazin-1-yl}carbonyl)-1,3,4-oxadiazol-2-yl]methyl}-4-methoxy-N,2,6-trimethylbenzenesulfonamide trifluoroacetate] | 6.00 to 7.00 |
| COc1cc(C)c(S(=O)(=O)N(Cc2nc(C(=O)N(C)Cc3ccc(CN4CCC(O)C4)cc3)co2)C2CC2)c(C)c1 (centres unmarked) [Ex 176, 2-({Cyclopropyl[(4-methoxy-2,6-dimethylphenyl)sulfonyl]amino}methyl)-N-{4-[(3-hydroxypyrrolidin-1-yl)methyl]benzyl}-N-methyl-1,3-oxazole-4-carboxamide] | > 8.00 |
| CN(CCc1ccc(C2=NCCN2)cc1)C(=O)c1coc(CN(C)S(=O)(=O)c2c(Cl)cc(Br)cc2Cl)c1 [Ex 24, 5-({[(4-bromo-2,6-dichlorophenyl)sulfonyl](methyl)amino}methyl)-N-{2-[4-(4,5-dihydro-1H-imidazol-2-yl)phenyl]ethyl}-N-methylfuran-3-carboxamide] | > 8.00 |
| COc1cc(C)c(S(=O)(=O)N(Cc2nc(C(=O)N3CCN(Cc4c[nH]nc4C)CC3)co2)C2CC2)c(C)c1 [Ex 255, N-Cyclopropyl-4-methoxy-2,6-dimethyl-N-{[4-({4-[(3-methyl-1H-pyrazol-4-yl)methyl]piperazin-1-yl}carbonyl)-1,3-oxazol-2-yl]methyl}benzenesulfonamide] | 7.00 to 8.00 |
| COc1cc(C)c(S(=O)(=O)N(C)Cc2cc(C(=O)NCCc3ccc(Nc4ccnc(N)n4)cc3)co2)c(C)c1 [Ex 45, N-(2-{4-[(2-aminopyrimidin-4-yl)amino]phenyl}ethyl)-5-({[(4-methoxy-2,6-dimethylphenyl)sulfonyl](methyl)amino}methyl)furan-3-carboxamide] | 6.00 to 7.00 |
| COc1cc(C)c(S(=O)(=O)N(Cc2cc(C(=O)N3CCN(CCCN4CCCC4)CC3)co2)C2CC2)c(C)c1 [Ex 115, N-Cyclopropyl-4-methoxy-2,6-dimethyl-N-[(4-{[4-(3-pyrrolidin-1-ylpropyl)piperazin-1-yl]carbonyl}furan-2-yl)methyl]benzenesulfonamide trifluoroacetate] | 7.00 to 8.00 |
| CCN(Cc1cc(C(=O)NCCc2ccc(C3=NCCN3)cc2)co1)S(=O)(=O)c1c(C)cc(OC)cc1C [Ex 104, N-{2-[4-(4,5-Dihydro-1H-imidazol-2-yl)phenyl]ethyl}-5-({ethyl[(4-methoxy-2,6-dimethylphenyl)sulfonyl]amino}methyl)furan-3-carboxamide trifluoroacetate] | 7.00 to 8.00 |
